The source of these data is the NIST ThermoML archive (doi:10.1016/j.jct.2008.03.017).

Molecules are shown by their SMILES. ± gives the expanded uncertainty stated by the source.

The conditions of the data set: Liquid; for mass density: 101.33 kPa.

For orientation: mass density means mass per unit of volume. A word on the vapor or sublimation pressure: it is the pressure of vapour in equilibrium with the condensed phase. Regarding `C1COCO1` [1,3-dioxolane], under “298.15 K”, the mass density came to 1058.62 ± 0.71 kg/m3 and the “vapor or sublimation pressure” value stood at 13.54 ± 0.14 kPa. Under “328.15 K”, the mass density is on record as 1039.88 ± 0.64 kg/m3 and the “vapor or sublimation pressure” value stood at 49.01 ± 0.19 kPa.

As for `C1COCCO1` [1,4-dioxane], where the note is “298.15 K”, the mass density was 1027.87 ± 0.6 kg/m3 and the “vapor or sublimation pressure” value came to 4.9 ± 0.13 kPa. Under “328.15 K”, the mass density is 1010.69 ± 0.53 kg/m3 and the “vapor or sublimation pressure” value was 19.54 ± 0.15 kPa.

For `CCCCCCCl` [1-chlorohexane], the mass density runs as follows: (298.15 K) 873.5 kg/m3; (328.15 K) 859.01 kg/m3. Moreover, the “vapor or sublimation pressure” value (298.15 K) is recorded as 1.255 ± 0.13 kPa and the “vapor or sublimation pressure” value (328.15 K) is recorded as 5.965 ± 0.13 kPa.

As to `C1CCOC1` [tetrahydrofuran], the mass density is, setting by setting: (298.15 K) 881.95 ± 0.45 kg/m3; (328.15 K) 865.36 ± 0.49 kg/m3. The “vapor or sublimation pressure” value reads like this: (298.15 K) 21.61 ± 0.15 kPa; (328.15 K) 70.61 ± 0.22 kPa.

On to `C1CCOCC1` [tetrahydropyran], for which, where the note is “298.15 K”, the mass density is on record as 878.81 ± 0.81 kg/m3 and the “vapor or sublimation pressure” value was 9.56 ± 0.14 kPa. For the same molecule, for the setting “328.15 K”, the mass density worked out at 863.67 ± 0.85 kg/m3 and the “vapor or sublimation pressure” value was 33.95 ± 0.17 kPa.
